Assay results from patent US20120190017A1, “POLYMORPHISMS IN THE HUMAN GENE FOR THE MULTIDRUG RESISTANCE-ASSOCIATED PROTEIN 1 (MRP-1) AND THEIR USE IN DIAGNOSTIC AND THERAPEUTIC APPLICATIONS” (priority 2001, published 2012).

Tested on: MRP-1 mRNA
Test: MRP-1 mRNA content in duodenal biopsies from healthy volunteers before and after application of rifampicin
Assay type: in vivo, human
Conditions: before (A) vs after (B) application of rifampicin, paired T-test p<0.001
Description: FIG. 3: Diagram 1A and 1B represent the correlation of the genotype (wt/wt: 1; wt/mut and mut/mut:2) with MRP-1 mRNA content in duodenal biopsies from healthy volunteers derived from two independent experiments, before (A) and after (B) application of rifampicin. The p-value of the statistical evaluation (Kruskal-Wallis-Test), which result in a genotyp/phenotype correlation is p=0.086. […] Thus, the differences in the MRP-1 mRNA content are based on interindividual differences. The statistical analyses were performed using the computer program SPSS 10.0 (SPSS, Chicago, USA).
Functional polymorphisms in the MRP-1 gene (see tables in examples 2 and 4) affect the transport activity and subsequently the levels of drugs which are substrates of MRP-1. […] Three different patient collectives, two show side effects during drug therapy and one for which the MRP-1 mRNA levels had been defined, were analyzed to determine whether MRP-1 polymorphisms correlate with transporter activity and subsequently with alterations in drug activities and side effects. […] For this purpose, the 3 collectives (collective 1: samples with nephrotoxicities after cisplatin therapy; collective 2: liver and kidney side effects; collective 3: samples with defined high or low MRP-1 mRNA levels) were screened for all MRP-1 gene fragments, in which the new SNP's could be detected. […]

CO[C@H]1/C=C/O[C@@]2(C)Oc3c(C)c(O)c4c(O)c(c(/C=N/N5CCN(C)CC5)c(O)c4c3C2=O)NC(=O)/C(C)=C\C=C\[C@H](C)[C@H](O)[C@@H](C)[C@@H](O)[C@@H](C)[C@H](OC(C)=O)[C@@H]1C [rifampicin]
effect on MRP-1 mRNA expression: no effect
